“Also recorded” adds a separate entry of the source.
How the values were obtained:
PPARα = target: T1, PPARα (Homo sapiens, UniProt Q07869); experiment: Gal4-hybrid reporter gene assay PPARα in HEK293T cells; type: cell-based; settings: 10 μM
T1 construct: pFA-CMV-hPPARα-LBD; expressed in transfected cells; host or cells: HEK293T
T1 sequence (Q07869 239-466 limits assumed): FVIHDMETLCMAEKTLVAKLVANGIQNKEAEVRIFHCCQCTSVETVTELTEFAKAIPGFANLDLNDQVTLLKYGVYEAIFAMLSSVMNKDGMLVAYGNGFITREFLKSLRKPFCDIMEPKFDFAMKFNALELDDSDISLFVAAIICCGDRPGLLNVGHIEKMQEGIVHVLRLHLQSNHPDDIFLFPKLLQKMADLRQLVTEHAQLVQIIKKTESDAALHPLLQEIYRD
Description: Hybrid reporter gene assays for PPARα/γ/δ, LXRα/β, RXRα/β/γ, RARα/β/γ, VDR and PXR Plasmids: The Gal4-fusion receptor plasmids pFA-CMV-hPPARα-LBD^52, pFA-CMV-hPPARγ-LBD^52, pFA-CMV-hPPARδ-LBD^52, pFA-CMV-hLXRα-LBD^32 and pFA-CMV-hLXRβ-LBD^32 have been reported previously. […] Frame and sequence of all fusion receptors were verified by sequencing. pFR-Luc (Stratagene) was used as reporter plasmid and pRL-SV40 (Promega) for normalization of transfection efficiency and cell growth.
Assay procedure: HEK293T cells were grown in DMEM high glucose, supplemented with 10% FCS, sodium pyruvate (1 mM), penicillin (100 U/mL) and streptomycin (100 μg/mL) at 37° C. and 5% CO2. The day before transfection, HEK293T cells were seeded in 96-well plates (2.5·10^4 cells/well). Before transfection, medium was changed to Opti-MEM without supplements. Transient transfection was carried out using Lipofectamine LTX reagent (Invitrogen) according to the manufacturer's protocol with pFR-Luc (Stratagene), pRL-SV40 (Promega) and pFA-CMV-hRXRα-LBD. 5 h after transfection, medium was changed to Opti-MEM supplemented with penicillin (100 U/mL), streptomycin (100 μg/mL), now additionally containing 0.1% DMSO and the respective test compound or 0.1% DMSO alone as untreated control. […] Luminescence was measured with an Infinite M200 luminometer (Tecan Deutschland GmbH). […]

HepG2 cells = experiment: WST-1 cytotoxicity assay; type: cell-based; settings: up to 100 μM
[1] = test system: PPARγ target genes CD36 and FAM3A; experiment: PPARγ target gene mRNA quantification (qRT-PCR) in HepG2 cells; type: cell-based; settings: HepG2, 1 μM
[2] = in vivo pharmacokinetic evaluation in mice; design: species or system mouse; settings: single dose p.o. 10 mg/kg body weight
Procedure: (§1) Three additional animals served as vehicle control.
Food and water were available ad libitum.
(§2) A part of the blood was centrifuged (6000 rpm, 10 min, +4° C.) to obtain plasma for quantification of EET/DHET ratio and stored at −80° C. until further evaluation. For liver collection, mice were sacrificed by cervical dislocation after the last blood sampling (8 h post dose). Complete liver was immediately snap-frozen and stored at −80° C. until further evaluation. Plasma and liver were equally obtained from three control mice which received oral application of the vehicle (1% HPMC/Tween 80 (99:1)).

FXR target genes = experiment: FXR target gene mRNA quantification from mouse livers; type: in vivo; settings: 10 mg/kg p.o., 8 h post dose
Procedure: as §1, §2
Quantification of FXR target gene mRNA from mouse livers: Hepatocyte isolation of mouse liver tissue for RT-qPCR: To homogenize the liver samples, one third of each liver was placed on one Falcon™ Cell Strainer with 40 μm pore size (BD Bioscience, Erembodegem, Belgium) in a 50 mL Falcon tube. Every tissue was rinsed with PBS buffer containing 10% FCS and 1% PenStrep and pressed through the cell strainer until 5 mL cell suspension had been collected. The samples were centrifuged at 1200 rpm for to min at 4° C. The supernatant was discarded and the pellets were washed with 5 mL cold PBS buffer and again centrifuged at 1200 rpm for 10 min at 4° C. After discarding the supernatant, the cell pellets were re-suspended in 1 mL PBS and total RNA was extracted using the E. Z. A. Total RNA Kit I (Omega bio-tek Inc., Narcoss, Ga., USA) following the Animal Tissue Protocol. The extracted RNA was used for qRT-PCR and equally treated as described for mRNA quantification from HepG2 cells (see above). PCR primers for the murine genes are listed in the supporting information.

[3] = observation of animals in the pilot in vivo study; design: species or system mouse; settings: single oral dose 10 mg/kg body weight
Procedure: Animals and compound application: 9 male C57BL/6JRj mice (23-26 g body weight, purchased from Janvier Labs, France) were used in the present study. The animals were housed in a temperature-controlled room (20-24° C.) and maintained in a 12 h light/12 h dark cycle. Food and water were available ad libitum. The in life phase was performed by the contract research organization Pharmacelsus (Saarbrücken, Germany). All experimental procedures were approved by and conducted in accordance with the regulations of the local Animal Welfare authorities (Landesamt für Gesundheit und Verbraucherschutz, Abteilung Lebensmittel-und Veterinärwesen, Saarbrücken). Six animals received a single oral dose of 10 mg/kg body weight of dual modulator 57 in water containing 1% HPMC/Tween 80 (99:1). Three animals received the vehicle (water containing 1% HPMC/Tween 80 (99:1)).

CC(C)(C)c1ccc(C(=O)NCc2ccc(NS(C)(=O)=O)cc2Cl)cc1 [compound 57, 4-(tert-Butyl)-N-(2-chloro-4-(methylsulfonamido)benzyl)benzamide]
activity on PPARα (PPARα): inactive | cytotoxicity in WST-1 assay (HepG2 cells): no cytotoxic activity; also recorded: no cytotoxicity | CD36 mRNA expression compared to vehicle set as 100% [1]: 119±33% | FAM3A mRNA expression compared to vehicle set as 100% [1]: 112±12% | Cmax [2]: 1182 ng/mL | t1/2 [2]: 42 min | tmax [2]: 30 min | increased expression of BSEP in mouse liver (FXR target genes): approx. 3 fold | increased expression of FGF15 in mouse liver (FXR target genes): approx. 2.5 fold | increased expression of SHP in mouse liver (FXR target genes): approx. 4 fold | reduced SREBP1c levels in mouse liver (FXR target genes): approx. 5 fold | SREBP1c mRNA in mouse liver compared to vehicle set as 100% (FXR target genes; vehicle 82±14): 17±10% | BSEP mRNA in mouse liver compared to vehicle set as 100% (FXR target genes; vehicle 105±24): 312±103% | SHP mRNA in mouse liver compared to vehicle set as 100% (FXR target genes; vehicle 108+29): 410±147% | FGF15 mRNA in mouse liver compared to vehicle set as 100% (FXR target genes; vehicle 119±15): 254±9% | adverse effects in mice [3]: no adverse effects
